{"source": "paper PMC5218480", "about": "(PLoS ONE, 2017)", "tested_on": "MV-4-11 cells", "experiment": "Gene expression microarray analysis (Affymetrix PrimeView) and GSEA", "format": "cell-based, human", "design": "RFU PODN (11730768_x_at) / Fold change /veh PODN (11730768_x_at) / RFU LINC00158 (11744669_a_at) / Fold change /veh LINC00158 (11744669_a_at) / RFU DUSP10 (11751237_a_at) / Fold change /veh DUSP10 (11751237_a_at) / RFU ID3 (11757404_x_at) / Fold change /veh ID3 (11757404_x_at) / RFU PLEKHG5 (11737974_s_at) / Fold change /veh PLEKHG5 (11737974_s_at) / RFU LRRC4B (11730491_at) / Fold change /veh LRRC4B (11730491_at) / RFU GIMAP4 (11747438_a_at) / Fold change /veh GIMAP4 (11747438_a_at) / RFU KRT8 (11758183_x_at) / Fold change /veh KRT8 (11758183_x_at) / RFU CNN1 (11734310_a_at) / Fold change /veh CNN1 (11734310_a_at) / RFU VPS37D (11726825_at) / Fold change /veh VPS37D (11726825_at) / RFU C10orf10 (11716522_x_at) / Fold change /veh C10orf10 (11716522_x_at) / RFU KIR2DL2 /// KIR2DL4 /// KIR2DL5A /// KIR2DL5B /// KIR2DS1 /// KIR2DS2 /// KIR2DS3 /// KIR2DS4 /// KIR3DL3 /// KIR3DL3 /// KIR3DS1 (11738374_at) / Fold change /veh KIR2DL2 /// KIR2DL4 /// KIR2DL5A /// KIR2DL5B /// KIR2DS1 /// KIR2DS2 /// KIR2DS3 /// KIR2DS4 /// KIR3DL3 /// KIR3DL3 /// KIR3DS1 (11738374_at) / RFU C1QL1 (11718748_at) / Fold change /veh C1QL1 (11718748_at) / RFU TMPRSS4 (11747572_a_at) / Fold change /veh TMPRSS4 (11747572_a_at) / RFU HAMP (11756126_x_at) / Fold change /veh HAMP (11756126_x_at) / RFU RNFT2 (11725882_a_at) / Fold change /veh RNFT2 (11725882_a_at) / RFU NR4A2 (11747474_a_at) / Fold change /veh NR4A2 (11747474_a_at) / RFU ABCC12 (11746883_a_at) / Fold change /veh ABCC12 (11746883_a_at) / RFU TMEM136 (11760407_x_at) / Fold change /veh TMEM136 (11760407_x_at) / RFU CLDN22 /// WWC2 (11732394_at) / Fold change /veh CLDN22 /// WWC2 (11732394_at) / RFU HLA-DPB1 (11760878_x_at) / Fold change /veh HLA-DPB1 (11760878_x_at) / RFU SPINT1 (11716480_a_at) / Fold change /veh SPINT1 (11716480_a_at) / RFU GAP43 (11754022_s_at) / Fold change /veh GAP43 (11754022_s_at) / RFU A4GNT (11735810_at) / Fold change /veh A4GNT (11735810_at) / RFU PRB3 (11715151_x_at) / Fold change /veh PRB3 (11715151_x_at) / RFU TUBB4B (11761932_at) / Fold change /veh TUBB4B (11761932_at) / RFU CAPN14 (11732068_a_at) / Fold change /veh CAPN14 (11732068_a_at) / RFU TMCC2 (11721928_a_at) / Fold change /veh TMCC2 (11721928_a_at) / RFU IRGQ (11745062_a_at) / Fold change /veh IRGQ (11745062_a_at) / RFU FAM174B (11720279_a_at) / Fold change /veh FAM174B (11720279_a_at) / RFU TMPRSS4 (11748680_a_at) / Fold change /veh TMPRSS4 (11748680_a_at) / RFU FAM212B (11763350_a_at) / Fold change /veh FAM212B (11763350_a_at) / RFU PLEKHG5 (11743358_a_at) / Fold change /veh PLEKHG5 (11743358_a_at) / RFU ZSCAN30 (11745921_a_at) / Fold change /veh ZSCAN30 (11745921_a_at) / RFU CMKLR1 (11741424_a_at) / Fold change /veh CMKLR1 (11741424_a_at) / RFU LOC101060620 /// MAPK8IP1 (11723275_at) / Fold change /veh LOC101060620 /// MAPK8IP1 (11723275_at) / RFU SPTSSB (11747773_x_at) / Fold change /veh SPTSSB (11747773_x_at) / RFU PRSS12 (11739890_at) / Fold change /veh PRSS12 (11739890_at) / RFU BIN1 (11741810_x_at) / Fold change /veh BIN1 (11741810_x_at) / RFU WNT11 (11732464_a_at) / Fold change /veh WNT11 (11732464_a_at) / RFU C10orf10 (11716521_a_at) / Fold change /veh C10orf10 (11716521_a_at) / RFU C5orf56 (11738089_at) / Fold change /veh C5orf56 (11738089_at) / RFU CYB561 (11721691_x_at) / Fold change /veh CYB561 (11721691_x_at) / RFU ANKRD19P (11752326_a_at) / Fold change /veh ANKRD19P (11752326_a_at) / RFU OR2T12 /// OR2T33 /// OR2T8 (11738714_s_at) / Fold change /veh OR2T12 /// OR2T33 /// OR2T8 (11738714_s_at) / RFU VCAN (11748164_a_at) / Fold change /veh VCAN (11748164_a_at) / RFU JSRP1 (11732532_at) / Fold change /veh JSRP1 (11732532_at) / RFU KRTAP10-11 (11738290_x_at) / Fold change /veh KRTAP10-11 (11738290_x_at) / RFU MYO3A (11730013_a_at) / Fold change /veh MYO3A (11730013_a_at) / RFU EBF3 (11725865_a_at) / Fold change /veh EBF3 (11725865_a_at) / RFU CAMK2N1 (11719241_x_at) / Fold change /veh CAMK2N1 (11719241_x_at) / RFU C5orf56 (11738088_a_at) / Fold change /veh C5orf56 (11738088_a_at) / RFU OLFML3 (11715873_a_at) / Fold change /veh OLFML3 (11715873_a_at) / RFU LOC100653217 /// NTM (11731650_a_at) / Fold change /veh LOC100653217 /// NTM (11731650_a_at) / RFU MAPK11 (11762145_a_at) / Fold change /veh MAPK11 (11762145_a_at) / RFU FIZ1 (11724087_x_at) / Fold change /veh FIZ1 (11724087_x_at) / RFU OASL (11726364_x_at) / Fold change /veh OASL (11726364_x_at) / RFU SOX15 (11748057_x_at) / Fold change /veh SOX15 (11748057_x_at) / RFU CD79A (11719716_a_at) / Fold change /veh CD79A (11719716_a_at) / RFU HIST1H1D (11736915_at) / Fold change /veh HIST1H1D (11736915_at) / RFU CASKIN2 (11723855_a_at) / Fold change /veh CASKIN2 (11723855_a_at) / RFU LOC730098 (11760151_x_at) / Fold change /veh LOC730098 (11760151_x_at) / RFU OR4N2 (11742367_at) / Fold change /veh OR4N2 (11742367_at) / RFU PRRT2 (11749266_a_at) / Fold change /veh PRRT2 (11749266_a_at) / RFU SNX32 (11753110_a_at) / Fold change /veh SNX32 (11753110_a_at) / RFU CDHR5 (11726645_a_at) / Fold change /veh CDHR5 (11726645_a_at) / RFU RCAN1 (11760418_a_at) / Fold change /veh RCAN1 (11760418_a_at) / RFU FAM167A (11723789_a_at) / Fold change /veh FAM167A (11723789_a_at) / RFU FAM26E (11764081_at) / Fold change /veh FAM26E (11764081_at) / RFU ISYNA1 (11749810_s_at) / Fold change /veh ISYNA1 (11749810_s_at) / RFU ACY1 (11761880_at) / Fold change /veh ACY1 (11761880_at) / RFU 11764098_at / Fold change /veh 11764098_at / RFU SAMD14 (11745864_x_at) / Fold change /veh SAMD14 (11745864_x_at) / RFU NPB (11741838_a_at) / Fold change /veh NPB (11741838_a_at) / RFU TMPRSS6 (11731388_a_at) / Fold change /veh TMPRSS6 (11731388_a_at) / RFU KRTAP10-2 (11738614_at) / Fold change /veh KRTAP10-2 (11738614_at) / RFU ARHGAP8 /// PRR5-ARHGAP8 (11727945_x_at) / Fold change /veh ARHGAP8 /// PRR5-ARHGAP8 (11727945_x_at) / RFU KRTAP5-7 /// NADSYN1 (11734609_at) / Fold change /veh KRTAP5-7 /// NADSYN1 (11734609_at) / RFU RASL12 (11751679_a_at) / Fold change /veh RASL12 (11751679_a_at) / RFU CDKN2B (11736163_a_at) / Fold change /veh CDKN2B (11736163_a_at) / RFU PRF1 (11729649_at) / Fold change /veh PRF1 (11729649_at) / RFU, ZNF638 /// ZNF638-IT1 / Fold change vs veh, ZNF638 /// ZNF638-IT1 / RFU, PANK3 / Fold change vs veh, PANK3 / RFU, SH3YL1 / Fold change vs veh, SH3YL1 / RFU, ZEB2 / Fold change vs veh, ZEB2 / RFU, NRIP1 / Fold change vs veh, NRIP1 / RFU, PTTG1IP / Fold change vs veh, PTTG1IP / RFU, CAPN2 / Fold change vs veh, CAPN2 / RFU, MED14 / Fold change vs veh, MED14 / RFU, SNORA58 / Fold change vs veh, SNORA58 / RFU, C1orf63 / Fold change vs veh, C1orf63 / RFU, LRRFIP1 / Fold change vs veh, LRRFIP1 / RFU, NDUFAF7 / Fold change vs veh, NDUFAF7 / RFU, SLC12A2 / Fold change vs veh, SLC12A2 / RFU, IBTK / Fold change vs veh, IBTK / RFU, ESF1 / Fold change vs veh, ESF1 / Fold change vs veh, TMEM50B / RFU, TAOK1 / Fold change vs veh, TAOK1 / RFU, ACBD3 / Fold change vs veh, ACBD3 / RFU, TMA16 / Fold change vs veh, TMA16 / RFU, RWDD3 / Fold change vs veh, RWDD3 / RFU, BCAT1 / Fold change vs veh, BCAT1 / RFU, EDEM3 / Fold change vs veh, EDEM3 / RFU, TMEM33 / Fold change vs veh, TMEM33 / RFU, WDR75 / Fold change vs veh, WDR75 / RFU, AHCTF1 / Fold change vs veh, AHCTF1 / RFU, TFRC / Fold change vs veh, TFRC / RFU, ZDHHC17 / Fold change vs veh, ZDHHC17 / RFU, NOM1 / Fold change vs veh, NOM1 / RFU, ARL8B / Fold change vs veh, ARL8B / RFU, ZBTB11 / Fold change vs veh, ZBTB11 / RFU, TAMM41 / Fold change vs veh, TAMM41 / RFU, KIAA1704 /// LOC100996395 / Fold change vs veh, KIAA1704 /// LOC100996395 / RFU, ING1 / Fold change vs veh, ING1 / RFU, TRMT61B / Fold change vs veh, TRMT61B / RFU, FUBP3 / Fold change vs veh, FUBP3 / RFU, TP53 / Fold change vs veh, TP53 / RFU, TNKS2 / Fold change vs veh, TNKS2 / RFU, ZFP14 / Fold change vs veh, ZFP14 / RFU, ACTR2 / Fold change vs veh, ACTR2 / RFU, PPP3R1 / Fold change vs veh, PPP3R1 / RFU, PIK3R1 / Fold change vs veh, PIK3R1 / RFU, HNRNPA1 / Fold change vs veh, HNRNPA1 / RFU, RNF170 / Fold change vs veh, RNF170 / RFU, ZNF28 / Fold change vs veh, ZNF28 / RFU, RNGTT / Fold change vs veh, RNGTT / RFU, OGT / Fold change vs veh, OGT / RFU, BRD1 / Fold change vs veh, BRD1 / RFU, MARS / Fold change vs veh, MARS / RFU, ZNF655 / Fold change vs veh, ZNF655 / RFU, FAHD1 / Fold change vs veh, FAHD1 / RFU, BDP1 / Fold change vs veh, BDP1 / RFU, LRRCC1 / Fold change vs veh, LRRCC1 / RFU, ARID1A / Fold change vs veh, ARID1A / RFU, ZNF146 / Fold change vs veh, ZNF146 / RFU, ZNF330 / Fold change vs veh, ZNF330 / RFU, GPN3 / Fold change vs veh, GPN3 / RFU, C9orf123 / Fold change vs veh, C9orf123 / RFU, N4BP2L2 / Fold change vs veh, N4BP2L2 / RFU, ARFIP1 / Fold change vs veh, ARFIP1 / RFU, FAM179B / Fold change vs veh, FAM179B / RFU, BCL10 / Fold change vs veh, BCL10 / RFU, UHRF1BP1L / Fold change vs veh, UHRF1BP1L / RFU, BET1 / Fold change vs veh, BET1 / RFU, CNOT2 / Fold change vs veh, CNOT2 / RFU, ZNF268 / Fold change vs veh, ZNF268 / Fold change vs veh, ZNF507 / RFU, DGCR2 / Fold change vs veh, DGCR2 / RFU, WDSUB1 / Fold change vs veh, WDSUB1 / Fold change vs veh, HSP90B1 /// MIR3652 / RFU, ADSS / Fold change vs veh, ADSS / RFU, GK / Fold change vs veh, GK / RFU, ZNF148 / Fold change vs veh, ZNF148 / RFU, TAF9 / Fold change vs veh, TAF9 / RFU, SLC1A5 / Fold change vs veh, SLC1A5 / RFU, SLMO2 / Fold change vs veh, SLMO2 / RFU, ABCC4 / Fold change vs veh, ABCC4 / RFU, LOC101060439 /// RAP1B / Fold change vs veh, LOC101060439 /// RAP1B / RFU, RFX7 / Fold change vs veh, RFX7 / RFU, GTPBP10 / Fold change vs veh, GTPBP10 / RFU, CNEP1R1 / Fold change vs veh, CNEP1R1 / RFU, BIVM-ERCC5 /// ERCC5 / Fold change vs veh, BIVM-ERCC5 /// ERCC5 / RFU, ILF3 / Fold change vs veh, ILF3 / RFU 11762660_at / Fold change /veh 11762660_at / RFU VCAN (11757783_s_at) / Fold change /veh VCAN (11757783_s_at) / RFU DDX43 (11728927_at) / Fold change /veh DDX43 (11728927_at) / RFU KRT8 (11758188_x_at) / Fold change /veh KRT8 (11758188_x_at) / RFU NKD1 (11759106_at) / Fold change /veh NKD1 (11759106_at) / RFU SRD5A1 (11742802_a_at) / Fold change /veh SRD5A1 (11742802_a_at) / RFU TPSAB1 /// TPSB2 (11721975_s_at) / Fold change /veh TPSAB1 /// TPSB2 (11721975_s_at) / RFU GSTM3 (11746129_a_at) / Fold change /veh GSTM3 (11746129_a_at) / RFU IL23R (11737362_x_at) / Fold change /veh IL23R (11737362_x_at) / RFU TMEM51 (11727254_a_at) / Fold change /veh TMEM51 (11727254_a_at) / RFU PIWIL2 (11732686_x_at) / Fold change /veh PIWIL2 (11732686_x_at) / RFU ORM1 (11744905_x_at) / Fold change /veh ORM1 (11744905_x_at) / RFU CCDC152 (11743942_at) / Fold change /veh CCDC152 (11743942_at) / RFU ECM1 (11717891_a_at) / Fold change /veh ECM1 (11717891_a_at) / RFU IL23R (11748794_a_at) / Fold change /veh IL23R (11748794_a_at) / RFU TNFAIP8L3 (11732012_x_at) / Fold change /veh TNFAIP8L3 (11732012_x_at) / RFU MBOAT4 (11741988_at) / Fold change /veh MBOAT4 (11741988_at) / RFU 11764193_at / Fold change /veh 11764193_at / RFU TMEM53 (11763286_at) / Fold change /veh TMEM53 (11763286_at) / RFU MAGEB2 (11727129_at) / Fold change /veh MAGEB2 (11727129_at) / RFU TMEM200A (11744735_a_at) / Fold change /veh TMEM200A (11744735_a_at) / RFU CCDC152 (11751479_a_at) / Fold change /veh CCDC152 (11751479_a_at) / RFU FAM211A (11726209_a_at) / Fold change /veh FAM211A (11726209_a_at) / RFU RGS16 (11746705_a_at) / Fold change /veh RGS16 (11746705_a_at) / RFU VCAN (11755009_s_at) / Fold change /veh VCAN (11755009_s_at) / RFU RHOB (11743442_s_at) / Fold change /veh RHOB (11743442_s_at) / RFU RGS16 (11720943_a_at) / Fold change /veh RGS16 (11720943_a_at) / RFU RGS16 (11720944_at) / Fold change /veh RGS16 (11720944_at) / RFU, VPS4B / Fold change vs veh, VPS4B / RFU, CREB1 / Fold change vs veh, CREB1 / RFU, DNAJC13 / Fold change vs veh, DNAJC13 / RFU, GNAQ / Fold change vs veh, GNAQ / RFU, CDK5R1 / Fold change vs veh, CDK5R1 / RFU, ZRANB3 / Fold change vs veh, ZRANB3 / RFU, CUL4A / Fold change vs veh, CUL4A / RFU, CCNY / Fold change vs veh, CCNY / RFU, UFL1 / Fold change vs veh, UFL1 / RFU, COG3 / Fold change vs veh, COG3 / RFU, DIAPH2 / Fold change vs veh, DIAPH2 / RFU, SKA2 / Fold change vs veh, SKA2 / RFU, AFF3 / Fold change vs veh, AFF3 / RFU, LMF1 / Fold change vs veh, LMF1 / RFU, IPO11 / Fold change vs veh, IPO11 / RFU, DFFB / Fold change vs veh, DFFB / RFU, FOXP1 / Fold change vs veh, FOXP1 / RFU, CARD8 / Fold change vs veh, CARD8 / RFU, STRN3 / Fold change vs veh, STRN3 / RFU, ADK / Fold change vs veh, ADK / RFU, RASSF2 / Fold change vs veh, RASSF2 / RFU, WIPF1 / Fold change vs veh, WIPF1 / RFU, LARP1B / Fold change vs veh, LARP1B / RFU, RASA1 / Fold change vs veh, RASA1 / RFU, RB1 / Fold change vs veh, RB1 / RFU, PPFIA1 / Fold change vs veh, PPFIA1 / RFU, MAT2A / Fold change vs veh, MAT2A / RFU, CCT5 / Fold change vs veh, CCT5 / RFU, WDR92 / Fold change vs veh, WDR92 / RFU, CUX1 / Fold change vs veh, CUX1 / RFU, TTC7A / Fold change vs veh, TTC7A / RFU, TMEM135 / Fold change vs veh, TMEM135 / RFU, DEPTOR / Fold change vs veh, DEPTOR / RFU, CPM / Fold change vs veh, CPM / RFU, DNAJB6 / Fold change vs veh, DNAJB6 / RFU, CACNA2D3 / Fold change vs veh, CACNA2D3 / RFU, DTX4 / Fold change vs veh, DTX4 / RFU, TFCP2 / Fold change vs veh, TFCP2 / RFU, GMCL1 /// GMCL1P1 / Fold change vs veh, GMCL1 /// GMCL1P1 / RFU, AEBP2 / Fold change vs veh, AEBP2 / RFU, SNHG1 /// SNORD22 /// SNORD25 /// SNORD26 /// SNORD27 /// SNORD28 /// SNORD29 /// SNORD31 / Fold change vs veh, SNHG1 /// SNORD22 /// SNORD25 /// SNORD26 /// SNORD27 /// SNORD28 /// SNORD29 /// SNORD31 / Fold change (Aza/veh), C12orf56 (ProbeSet 11735607_a_at) / Fold change (ACY-1035/veh), C12orf56 (ProbeSet 11735607_a_at) / Fold change (Aza/veh), FGFR1OP (ProbeSet 11751329_s_at) / Fold change (ACY-1035/veh), FGFR1OP (ProbeSet 11751329_s_at) / Fold change (Aza/veh), VPS36 (ProbeSet 11739960_a_at) / Fold change (ACY-1035/veh), VPS36 (ProbeSet 11739960_a_at) / RFU SYPL1 (11715823_x_at) / Fold change /veh SYPL1 (11715823_x_at) / RFU IGFBP7 (11715501_s_at) / Fold change /veh IGFBP7 (11715501_s_at) / RFU REEP3 (11722064_at) / Fold change /veh REEP3 (11722064_at) / RFU IGLL1 (11728026_x_at) / Fold change /veh IGLL1 (11728026_x_at): dose or concentration left out as unconfirmed", "conditions": "ProbeSet 11743882_a_at; LIST D", "data": [{"molecule": "Nc1ccc(-c2cccs2)cc1NC(=O)c1ccc2c(c1)cc(C1CC1)n2CCN1CCOCC1", "note": "[ACY-1035]", "values": [{"measurement": "Fold change vs veh, STRN3", "value": 0.92}]}]}
